Experimental data: publication PMC6667648 (Frontiers in Microbiology, 2019)
≈ marks a conversion by molar mass, not a printed value. Where “and” joins values, the source holds several entries; their conditions need not be identical. Equal values may be shown once.

Key:
[1] = tested on: 6 hr MRSA ATCC 1556 biofilm; assay type: cell-based, Staphylococcus aureus; details: ATCC 1556, 6 h
[2] = tested on: mature (120 h) MRSA ATCC 1556 biofilm; assay type: cell-based, Staphylococcus aureus; details: ATCC 1556, 120 h
[3] = tested on: preformed C. albicans biofilm; details: ref Woodburn et al., under review; cited from earlier work
[4] = tested on: C. parapsilosis Y-1763; assay: microbe, parasite or virus in culture; assay type: cell-based; details: Lodderomyces parapsilosis, Y1763, 24-h incubation, mean of 3 replicates from 2 independent experiments, read-out: Minimum Inhibitory Concentration (MIC)
Method: (§1) Strains were obtained from American Type Culture Collection (ATCC, Manassas, VA) or the clinical isolate collection at Trideum Biosciences (Frederick, MD, USA). Bioluminescence strains of P. aeruginosa 19660, transfected with the Xen5 luciferase gene, and S. aureus ATCC® 49525™ (Wright), transfected with the Xen36 luciferase gene, were obtained from Perkin Elmer (Hopkinton, MA).
(§2) A single colony was aseptically picked from an agar overlay and released in 25–30 mL of pre-warmed trypticase soy broth in a culture flask. Each culture was incubated overnight in a 37°C incubator. […] Pathogen growth was measured by absorbance at 600 nm. Four replicas were included for each test agent concentration. […]

[5] = tested on: C. parapsilosis Y-1761; assay: microbe, parasite or virus in culture; assay type: cell-based; details: Lodderomyces parapsilosis, Y1761, 24-h incubation, mean of 3 replicates from 2 independent experiments, read-out: Minimum Inhibitory Concentration (MIC)
Method: as §1, §2

[6] = tested on: A. baumannii 6838; assay: microbe, parasite or virus in culture; assay type: cell-based, Acinetobacter baumannii; details: Acinetobacter baumannii; A. baumannii 6838; 24-h incubation; mean of 3 replicates from 2 independent experiments; read-out: Minimum Inhibitory Concentration (MIC)
Method: as §1, §2

[7] = tested on: A. baumannii 6043; assay: microbe, parasite or virus in culture; assay type: cell-based, Acinetobacter baumannii; details: Acinetobacter baumannii; A. baumannii 6043; 24-h incubation; mean of 3 replicates from 2 independent experiments; read-out: Minimum Inhibitory Concentration (MIC)
Method: as §1, §2

[8] = tested on: A. baumannii ATCC 17978; assay: microbe, parasite or virus in culture; assay type: cell-based, Acinetobacter baumannii; details: Acinetobacter baumannii, ATCC17978; A. baumannii ATCC 17978; 24-h incubation; mean of 3 replicates from 2 independent experiments; read-out: Minimum Inhibitory Concentration (MIC)
Method: as §1, §2

[9] = tested on: bioluminescent P. aeruginosa 19660; assay: Bioluminescence time-kill assay; assay type: cell-based, Pseudomonas aeruginosa; details: antibiotics after 30 min incubation, triplicates, two independent experiments
Method: as §1
(§3) Non-invasive real-time evaluation of viability, mammalian, and bacterial cells, was performed using bioluminescent human keratinocytes (HaCaT, AddexBio, San Diego, CA) and murine L929 fibroblast cells (ATCC, Manassas, VA). The bioluminescent variants were constructed by transfection with a luciferase gene (RediFect Red-Fluc-Puromycin, Catalog #CL596002) (Hamblin et al., [2003]). […] Each concentration was performed in triplicate. Bioluminescence imaging was performed at pre-specified times (0, 15, and 30 min and 1, 3, 5, 8, and 24 h) and compared to concurrently run vehicle-controls. The 96-well plate was positioned on the stage (12.5-cm field of view) within the in vivo Imaging System (IVIS) imaging system (Caliper Life Sciences, Inc., Hopkinton, MA, USA), with an open emission filter, binning of 4, and f-stop 1, and a 1-min exposure time. The resultant photons emitted from the live cells were quantified using Living Image® software (version 4.3, Caliper Life Sciences, Inc.). […]

[10] = tested on: P. aeruginosa ATCC 19660; assay: microbe, parasite or virus in culture; assay type: cell-based, Pseudomonas aeruginosa; details: Pseudomonas aeruginosa, ATCC19660; P. aeruginosa ATCC 19660; 24-h incubation; mean of 3 replicates from 2 independent experiments; read-out: Minimum Inhibitory Concentration (MIC)
Method: as §1, §2

[11] = tested on: P. aeruginosa ATCC 27853; assay: microbe, parasite or virus in culture; assay type: cell-based, Pseudomonas aeruginosa; details: Pseudomonas aeruginosa, ATCC27853; P. aeruginosa ATCC 27853; 24-h incubation; mean of 3 replicates from 2 independent experiments; read-out: Minimum Inhibitory Concentration (MIC)
Method: as §1, §2

[12] = tested on: P. aeruginosa 6186; assay: microbe, parasite or virus in culture; assay type: cell-based, Pseudomonas aeruginosa; details: Pseudomonas aeruginosa; P. aeruginosa 6186; 24-h incubation; mean of 3 replicates from 2 independent experiments; read-out: Minimum Inhibitory Concentration (MIC)
Method: as §1, §2

[13] = tested on: S. aureus 6061; assay: microbe, parasite or virus in culture; assay type: cell-based, Staphylococcus aureus; details: Staphylococcus aureus; S. aureus 6061; 24-h incubation; mean of 3 replicates from 2 independent experiments; read-out: Minimum Inhibitory Concentration (MIC)
Method: as §1, §2

[14] = tested on: MRSA 6381; assay: microbe, parasite or virus in culture; assay type: cell-based, Staphylococcus aureus; details: Staphylococcus aureus; MRSA 6381; 24-h incubation; mean of 3 replicates from 2 independent experiments; read-out: Minimum Inhibitory Concentration (MIC)
Method: as §1, §2

[15] = tested on: MRSA ATCC 33592; assay: microbe, parasite or virus in culture; assay type: cell-based, Staphylococcus aureus; details: Staphylococcus aureus; MRSA ATCC 33592; 24-h incubation; mean of 3 replicates from 2 independent experiments; read-out: Minimum Inhibitory Concentration (MIC)
Method: as §1, §2

[16] = tested on: MRSA 6313; assay: microbe, parasite or virus in culture; assay type: cell-based, Staphylococcus aureus; details: Staphylococcus aureus; MRSA 6313; 24-h incubation; mean of 3 replicates from 2 independent experiments; read-out: Minimum Inhibitory Concentration (MIC)
Method: as §1, §2

[17] = tested on: S. aureus B-767; assay: microbe, parasite or virus in culture; assay type: cell-based, Staphylococcus aureus; details: Staphylococcus aureus, B767; S. aureus B-767; 24-h incubation; mean of 3 replicates from 2 independent experiments; read-out: Minimum Inhibitory Concentration (MIC)
Method: as §1, §2

[18] = tested on: bioluminescent S. aureus 49525; assay: Bioluminescence time-kill assay; assay type: cell-based, Staphylococcus aureus; details: antibiotics after 30 min incubation, triplicates, two independent experiments
Method: as §1, §3

[19] = tested on: E. cloacae 6054; assay: microbe, parasite or virus in culture; assay type: cell-based; details: Enterobacter cloacae; E. cloacae 6054; 24-h incubation; mean of 3 replicates from 2 independent experiments; read-out: Minimum Inhibitory Concentration (MIC)
Method: as §1, §2

[20] = tested on: E. cloacae 6053; assay: microbe, parasite or virus in culture; assay type: cell-based; details: Enterobacter cloacae; E. cloacae 6053; 24-h incubation; mean of 3 replicates from 2 independent experiments; read-out: Minimum Inhibitory Concentration (MIC)
Method: as §1, §2

[21] = tested on: S. epidermis ATCC 51625; assay: microbe, parasite or virus in culture; assay type: cell-based, S. epidermidis; details: Staphylococcus epidermidis, ATCC51625; S. epidermis ATCC 51625; 24-h incubation; mean of 3 replicates from 2 independent experiments; read-out: Minimum Inhibitory Concentration (MIC)
Method: as §1, §2

[22] = tested on: K. pneumonia 6066; assay: microbe, parasite or virus in culture; assay type: cell-based, Klebsiella pneumoniae; details: Klebsiella pneumoniae; K. pneumonia 6066; 24-h incubation; mean of 3 replicates from 2 independent experiments; read-out: Minimum Inhibitory Concentration (MIC)
Method: as §1, §2

[23] = tested on: K. pneumonia 6069; assay: microbe, parasite or virus in culture; assay type: cell-based, Klebsiella pneumoniae; details: Klebsiella pneumoniae; K. pneumonia 6069; 24-h incubation; mean of 3 replicates from 2 independent experiments; read-out: Minimum Inhibitory Concentration (MIC)
Method: as §1, §2

[24] = tested on: K. pneumonia ATCC 10031; assay: microbe, parasite or virus in culture; assay type: cell-based, Klebsiella pneumoniae; details: Klebsiella pneumoniae, ATCC10031; K. pneumonia ATCC 10031; 24-h incubation; mean of 3 replicates from 2 independent experiments; read-out: Minimum Inhibitory Concentration (MIC)
Method: as §1, §2

## CCCCCCCCCC(=O)N[C@@H](Cc1c[nH]c2ccccc12)C(=O)N[C@H](CC(N)=O)C(=O)N[C@@H](CC(=O)O)C(=O)N[C@@H]1C(=O)NCC(=O)N[C@@H](CCCN)C(=O)N[C@@H](CC(=O)O)C(=O)N[C@H](C)C(=O)N[C@@H](CC(=O)O)C(=O)NCC(=O)N[C@H](CO)C(=O)N[C@@H]([C@H](C)CC(=O)O)C(=O)N[C@@H](CC(=O)c2ccccc2N)C(=O)O[C@@H]1C [daptomycin]
[1]
  EC90, biofilm CFU: > 100 µg/mL
[2]
  EC90 (concentration to reduce biofilm by 90%): ~ 100 μg/mL

## OC(Cn1cncn1)(Cn1cncn1)c1ccc(F)cc1F [fluconazole]
[3]
  Killing fungi in preformed C. albicans biofilm and preventing biofilm formation: markedly ineffective

## C[C@@H]1[C@H](O)[C@@H](C)/C=C/C=C/C=C/C=C/C=C/C=C/C=C/[C@H](O[C@@H]2O[C@H](C)[C@@H](O)[C@H](N)[C@@H]2O)C[C@@H]2O[C@](O)(C[C@@H](O)C[C@@H](O)[C@H](O)CC[C@@H](O)C[C@@H](O)CC(=O)O[C@H]1C)C[C@H](O)[C@H]2C(=O)O [Amphotericin b, amphotericin B]
[4]
  MIC: 1 µM and 1.08 µg/mL
[5]
  MIC: 1 µM and 1.08 µg/mL

## NC[C@H]1O[C@H](O[C@H]2[C@H](O)[C@@H](O[C@H]3O[C@H](CO)[C@@H](O)[C@H](N)[C@H]3O)[C@H](N)C[C@@H]2N)[C@H](N)C[C@@H]1O [Tobramycin, tobramycin]
[6]
  MIC: 4.3 µM (≈ 2.01 µg/mL)
[7]
  MIC: 68.5 µM (≈ 32 µg/mL)
[8]
  MIC: 4.3 µM (≈ 2.01 µg/mL)
[9]
  Bactericidal activity in time-kill assay: no trace of antibacterial activity
[10]
  MIC: > 274 µM
[11]
  MIC: 4.3 µM (≈ 2.01 µg/mL)
[12]
  MIC: > 274 µM
[13]
  MIC: 8.6 µM (≈ 4.02 µg/mL)
[14]
  MIC: 274 µM (≈ 128 µg/mL)
[15]
  MIC: 137 µM (≈ 64.1 µg/mL)
[16]
  MIC: > 274 µM
[17]
  MIC: > 274 µM
[18]
  Bactericidal activity in time-kill assay: no trace of antibacterial activity
[19]
  MIC: 137 µM (≈ 64.1 µg/mL)
[20]
  MIC: 68.5 µM (≈ 32 µg/mL)
[21]
  MIC: 4.3 µM (≈ 2.01 µg/mL)
[22]
  MIC: 8.6 µM (≈ 4.02 µg/mL)
[23]
  MIC: 4.3 µM (≈ 2.01 µg/mL)
[24]
  MIC: 4.3 µM (≈ 2.01 µg/mL)
